Data on five compounds can be found in patent publication US20140093903A1, “METHODS FOR DIAGNOSIS, PROGNOSIS AND METHODS OF TREATMENT” (Nodality, Inc., priority 2012, published 2014).

Bounds are passed on as bounds.

Assay [1] relates to CLL cells. To be noted: inhibition of AKT phosphorylation by the PI3K inhibitor; cited from earlier work.
In a further assay the test system is CLL B cells. The experiment in a line: SCNP phospho-flow: H2O2-modulated BCR signaling, CLL samples. Format: cell-based, human. To be noted: after exposure to H2O2. The protocol:
Cryopreserved PBMCs, 23 from CLL patients and 7 from healthy donors, were rapidly thawed in a 37° C. water bath. 1 mL of pre-warmed thawing media (PBS 1% FBS, 2 mM EDTA) was added dropwise to each of the cryovials. […] Supernatant was decanted, cell pellets were resuspended in 1 mL RPMI 1640 1% FCS and filtered over 70 um nylon mesh (BD Falcon) to remove cell clumps and debris. 11 mL of additional RPMI 1640 1% FCS was added to the samples to wash. A 20 uL aliquot was removed from each sample and placed into a solution of PBS 4% FCS CD45 Alexa Flour 700 and Propidium Iodide for viability and counting on a BDLSRII cytometer.
At the end of the 10 minute incubation […] 5.6% PFA (final 1.6%) was added to each well to fix the cells.
At the end of the 10 minute incubation 200 uL 5.6% PFA (final 1.6%) was added to each well to fix the cells.
Cells were permeabilized by adding 600 µL of ice cold 100% methanol to each well using the Costar 96-channel pipettor (Costar). […]
To test whether phenotypic characterization of CLL physiology could be discerned based on responses of cells to extracellular stimuli, modulated BCR intracellular signaling was determined either in response to anti-μ (ligand-dependent) or post H2O2 treatment to evaluate the contribution of tonic signaling (ligand-independent) to BCR output. […]

In the next assay the test system is healthy B cells. The protocol:
Cryopreserved PBMCs, 23 from CLL patients and 7 from healthy donors, were rapidly thawed in a 37° C. water bath. 1 mL of pre-warmed thawing media (PBS 1% FBS, 2 mM EDTA) was added dropwise to each of the cryovials. Thawed cells were transferred to a tube containing 8 mL thawing media. Tubes were inverted and centrifuged at 200×g for 8 minutes at room temperature. Supernatant was decanted, cell pellets were resuspended in 1 mL RPMI 1640 1% FCS and filtered over 70 um nylon mesh (BD Falcon) to remove cell clumps and debris. 11 mL of additional RPMI 1640 1% FCS was added to the samples to wash. A 20 uL aliquot was removed from each sample and placed into a solution of PBS 4% FCS CD45 Alexa Flour 700 and Propidium Iodide for viability and counting on a BDLSRII cytometer. The remaining volume of cell suspension was centrifuged at 200×g for 8 minutes at room temperature
For single agent modulators 150 μL of 10× solutions were arrayed into wells of a 96-well v-bottom plate (Nunc). Corresponding daughter plates were taken from the 37° C. incubator, and […] of RPMI1640 1% FCS was added to each well using the Liquidator 96-well pipettor. […] The daughter plates were pulse vortexed for 5 seconds and placed into a 37° C. water bath for 10 minutes.
Corresponding daughter plates were taken from the 37° C. incubator. […]
Antibody cocktails for signaling and apoptosis readouts were prepared in FACS Buffer. […]

The test system of assay [2] is CLL cells. The following applies: in vitro treatment; Buchner 2009, Gobessi 2009; cited from earlier work.
Assay [3] deals with CD19+CD5+ CLL cells. The experiment in a line: SCNP drug-induced signaling, Example 2 (4 and 24 hours). It counts as cell-based, human.
Protocol: Peripheral blood mononuclear cells (PBMCs) were obtained from 29 patients with CLL treated on a clinical trial at “La Sapienza” University of Rome between November 2008 and January 2010 at the time of but prior to the initiation of first treatment. All patients provided informed consent for research purposes. SCNP assays were performed blinded to clinical outcomes. […] SCNP analysis was performed to quantitatively measure 18 intracellular signaling proteins within CD19+CD5+ CLL cells using a panel of 14 disease-relevant modulators (FIG. 27) as follows:
SCNP analysis was performed to quantitatively measure intracellular signaling proteins within CD19+CD5+ CLL cells using a panel of disease-relevant modulators. First, the cryopreserved PBMC samples were thawed at 37° C., stained for viability with Amine Aqua (Invitrogen, Carlsbad, Calif.), resuspended in RPMI with 10% FBS and aliquoted at 100,000 cells per well 96-deepwell plates. Cells were rested for 2 hours at 37° C. followed by modulation. Short duration modulation was performed for 10 minutes at 37° C. with the following modulators: 20 μg/mL polyclonal goat F(ab′)2 anti-human IgM (Southern Biotech, Birmingham, Ala.), 5 μg/mL monoclonal anti-human IgD (BD Biosciences, San Jose, Calif.), 10 ng/mL of SDF1□ (R&D Systems, Minneapolis, Minn.), and the combination of 20 μg/mL polyclonal goat F(ab′)2 anti-human IgM and 10 ng/mL of SDF1□□□15 minute modulations were performed for the following: 0.5 μg/mL CD40L (R&D Systems, Minneapolis, Minn.), 50 ng/mL IL-2 (R&D Systems, Minneapolis, Minn.), 50 ng/mL IL-4 (BD Biosciences, San Jose, Calif.), 50 ng/mL IL-21 (Peprotech, Rocky Hill, N.J.), 1000 IU/mL of IFN□ (PBL InterferonSource, Piscataway, N.J.), 5 μg/mL R848 (Invivogen, San Diego, Calif.), and 1 μM thapsigargin (EMD Millipore, Billerica, Mass.). […]
The test system of assay [4] is CD19+CD5+ CLL cells. Put plainly: SCNP modulated signaling, Example 2 (10-15 min modulation). Format: cell-based, human. To be noted: SDF1α 10 ng/mL. The method, then: Peripheral blood mononuclear cells (PBMCs) were obtained from 29 patients with CLL treated on a clinical trial at “La Sapienza” University of Rome between November 2008 and January 2010 at the time of but prior to the initiation of first treatment. All patients provided informed consent for research purposes. SCNP assays were performed blinded to clinical outcomes. Diagnosis and initiation of treatment for B-CLL were based on 1996 National Cancer Institute-Working Group ([…] 2008 Guidelines for Diagnosis and Treatment of CLL. Clinical and biological disease characteristics at diagnosis are summarized in FIG. 28 IGHV mutational status and expression of CD38 and ZAP-70 were determined. […] SCNP analysis was performed to quantitatively measure intracellular signaling proteins within CD19+CD5+ CLL cells using a panel of disease-relevant modulators. […] Cells were rested for 2 hours at 37° C. followed by modulation. Short duration modulation was performed for 10 minutes at 37° C. with the following modulators: 20 μg/mL polyclonal goat F(ab')2 anti-human IgM (Southern Biotech, Birmingham, Ala.), 5 μg/mL monoclonal anti-human IgD (BD Biosciences, San Jose, Calif.), 10 ng/mL of SDF1[…] (R&D Systems, Minneapolis, Minn.), and the combination of 20 μg/mL polyclonal goat F(ab')2 anti-human IgM and 10 ng/mL of SDF1[…]15 minute modulations were performed for the following: 0.5 μg/mL CD40L (R&D Systems, Minneapolis, Minn.), 50 ng/mL IL-[…] […] The raw instrument fluorescence intensities were converted to calibrated intensity metrics (ERFs, Equivalent Number of Reference Fluorophores). […] The term “signaling node” is used to refer to a proteomic readout in the presence or absence of a specific modulator. For example, the response to anti-IgM modulation can be measured using p-ERK as a readout. […] The term “metric” is used to refer to the quantification method used to evaluate the functional response of signaling proteins. […]

The subject of a further assay is CD19+CD5+B-CLL cells. The experiment in a line: SCNP modulated signaling, Example 3 (B-CLL vs healthy B cells). Format: cell-based, human. The following applies: CLL samples compared to healthy controls. The protocol:
Peripheral blood mononuclear cells (PBMCs) were obtained from 39 B-CLL patients between 2006 and 2007, Rai stage 0-II, at different time points during their clinical course but prior to the initiation of treatment. PBMCs from four age-matched healthy donors were collected at the Stanford Blood Center. All donors provided informed consent for research purposes. SCNP assays were performed blinded to clinical data. Diagnosis and initiation of treatment for B-CLL were based on 1996 National Cancer Institute-Working Group (NCI-WG)/IWCLL 2008 Guidelines for Diagnosis and Treatment of CLL. The median age of CLL patients was slightly lower than the typical CLL population (58 years vs 65-70). Of the 39 samples evaluated, 15 expressed CD38 (≧30% of cells) and 20 expressed ZAP-70 (≧20% of cells); 19 were IGHV unmutated (98% cutoff); and the cytogenetic risk groups were evenly represented. IGHV mutational status and expression of CD38 and ZAP-70 were determined. […]
SCNP analysis quantitatively measured intracellular signaling proteins within CD19+CD5+B-CLL cells using a panel of disease-relevant modulators (FIG. 27, FIG. 35A, B). […]
Flow cytometry data were gated using WinList (Verity House Software, Topsham, Me.). […] The raw instrument fluorescence intensities were converted to calibrated intensity metrics (ERFs, Equivalent Number of Reference Fluorophores). […]

Setting [5] is: 24 hours, samples with low spontaneous apoptosis.

On to `CC[C@H](Nc1ncnc2[nH]cnc12)c1nc2cccc(F)c2c(=O)n1-c1ccccc1` [CAL-101/GS-1101], for which, in the assay on CLL cells [1], the “CD40L protection from spontaneous apoptosis” value is “blocked”.
Turning to `OO` [H2O2, hydrogen peroxide], the results for the “B cells with activated Syk and BLNK” value in the assay with CLL B cells (sample CLL007 (Group II)) and in the assay with CLL B cells (sample CLL021 (Group II)) were “approximately 2%” and 5-6%, respectively. Besides, the “anti-μ-mediated BCR signaling in presence of H2O2” value with healthy B cells (B cells from healthy donors) is given as “further potentiated”. Also, in the assay with healthy B cells (healthy B cells), the “response of all signaling molecules except Akt to H2O2 treatment alone” value is listed as “minimally responsive”.
As for `COc1cc(Nc2ncc(F)c(Nc3ccc4c(n3)NC(=O)C(C)(C)O4)n2)cc(OC)c1OC` [R406], the “apoptotic response of CLL cells” value with CLL cells [2] is “mediated an apoptotic response”.
Consider `Cn1c(CCCC(=O)O)nc2cc(N(CCCl)CCCl)ccc21` [bendamustine], for which, in the assay on CD19+CD5+ CLL cells [3] (setting [5]), the “induced p-53BP1 signaling, bendamustine versus fludarabine” value was “greater” and the “induced p-H2AX signaling, bendamustine versus fludarabine” value is reported as “equivalent”. Besides, the “p21 induction in response to bendamustine” value in the assay with CD19+CD5+ CLL cells [3] (CLL samples with 17p deletion, 24 hour, additional cohort of 7 CLL samples) is given as “impaired p21 induction”.
Take SDF1α: in the assay with CD19+CD5+ CLL cells [4] (10 min, moderate signal), the SDF1α→p-AKT signal is at least 0.25 log 2Fold and the SDF1α→p-ERK signal is listed as at least 0.25 log 2Fold. Further, the “p-ERK signal, median log 2Fold” value with CD19+CD5+ CLL cells [4] (10 min modulation, αIgM 20 μg/mL) is recorded as 0.38 log 2Fold. The “SDF1α→p-AKT modulation as a single stimulus” value in the assay on CD19+CD5+B-CLL cells is “weaker in nearly all CLL samples”.
